Assay results reported in US8410089B2, “Fused heterocyclic ring compound” (Takeda Pharmaceutical Company Limited, priority 2009, dated 2013).

Assays:
male Wistar fatty rats = experiment: Oral glucose tolerance test (OGTT), hypoglycemic action; type: in vivo, rat; settings: 10 mg/kg oral; for blood glucose lowering rate (%): OGTT in WF rats, decrease rate of AUC0-120min with control group as 100%, **p ≦ 0.01 vs control; for plasma glucose AUC0-120 min: 22-week-old WF rats fasted overnight, glucose 1 g/kg oral 60 min after compound, control group 32734.2
Procedure: A hypoglycemic action of the compound of the present invention was examined in an oral glucose tolerance test (OGTT) using male Wistar fatty rats (WF rat, TAKEDA RABICS).
First, 22-week-old WF rats fasted overnight were divided into groups (6 per group), and blood samples were collected and used as plasma samples before drug administration (−60 min). Thereafter, 0.5% methylcellulose (control group) and a test compound was orally administered at 10 mg/kg. At 60 min after compound administration, each individual was loaded by oral administration of glucose at 1 g/kg, and the blood was drawn before glucose loading (0 min) and 10, 30, 60 and 120 min after loading. The plasma glucose concentration was measured using L type Waco Glu2 (Wako) and Hitachi automatic analyzer 7080 (Hitachi Instruments Service Co., Ltd.). The 0-120 min area under time curve (AUC0-120min) and the decrease rate when the control group was 100% were calculated from the plasma glucose values measured.

human GPR119 = target: T1, human GPR119 (Homo sapiens, UniProt Q8TDV5); experiment: Human GPR119 agonist activity with increase of intracellular cAMP concentration as index (CRE-luciferase reporter assay in hGPR119/CRE-luc/CHO(dhfr-) cells); type: cell-based; settings: 1 μM test compound, 2 hr incubation; luciferase activity with 10 μM N-[4-(methylsulfonyl)phenyl]-5-nitro-6-{4-[4-(trifluoromethoxy)phenoxy]piperidin-1-yl}pyrimidin-4-amine = 100%, DMSO = 0%
T1 construct: expressed in transfected cells
T1 sequence (Q8TDV5 1-335): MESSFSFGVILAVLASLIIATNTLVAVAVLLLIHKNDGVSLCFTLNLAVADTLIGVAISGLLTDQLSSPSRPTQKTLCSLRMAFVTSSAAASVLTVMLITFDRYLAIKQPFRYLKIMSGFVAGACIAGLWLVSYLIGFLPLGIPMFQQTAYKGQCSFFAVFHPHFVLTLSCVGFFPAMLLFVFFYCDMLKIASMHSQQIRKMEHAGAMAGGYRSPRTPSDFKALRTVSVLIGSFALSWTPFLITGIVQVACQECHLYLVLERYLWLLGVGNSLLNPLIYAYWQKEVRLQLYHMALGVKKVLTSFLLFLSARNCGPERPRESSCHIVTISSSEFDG
Procedure: Evaluation of Human GPR119 Agonist Activity with Increase of Intracellular Camp Concentration as Index
(1) Construction of Expression Plasmid of Human GPR119 Gene
Using High Fidelity RNA PCR Kit (Takara Bio Inc.), human GPR119 gene was cloned by PCR using cDNA library synthesized from human brain mRNA (Clontech) as a template and synthetic DNA having the following sequence. Primer 1 and Primer 2 were is prepared by adding cleavage sites for Sal I and Nhe I based on the base sequence information of human GPR119 gene.
PCR was performed using Pyrobest DNA polymerase (Takara Bio Inc.). The obtained PCR product was cloned to pUC118 (Takara Bio Inc.), and the base sequence was […] and digested with restriction enzymes Sal I, Nhe I. The obtained DNA fragment was inserted into an animal cell expression vector pAKKO-111H (plasmid same as pAKKO-1.111H described in Biochem. Biophys. Acta, Hinuma, S. et al., 1219, 251-259 (1994)) similarly digested with Sal I, Nhe I, whereby an expression plasmid pAKKO-111H/hGPR119 was prepared.
(2) Construction of Reporter Plasmid
Zeocin resistance gene was cloned by PCR using plasmid pcDNA3.1/Zeo (Invitrogen) as a template, synthetic DNA having the following sequences wherein cleavage sites for restriction enzymes Sal I and BamH I are added to before and after a region containing SV40 Ori and a region containing SV40pA, which are located at the upstream and downstream of Zeocin resistance gene of this plasmid, as a primer set, and KOD polymerase (TOYOBO).
The obtained PCR product was inserted into pCR-BluntII (Invitrogen). A fragment containing a Zeocine resistance gene obtained by digesting the plasmid with restriction enzymes Sal I and BamH I was inserted into plasmid pGL3(R2.2)-Basic Vector (promega) similarly digested with Sal I and Bam HI to give Zeocin resistance plasmid pGL3(R2.2)/Zeocin-Basic Vector.
A reporter plasmid containing 4 cAMP responsive elements (CRE) connected in tandem was prepared using the following 5′-terminal phosphorylated synthetic DNA.
First, a DNA fragment containing a CRE sequence obtained by annealing CRE-Upper and CRE-Lower and elongating with KOD polymerase was inserted into pCR-BluntII to give pCR-BluntII-CRE. A fragment cleaved from pCR-BluntII-CRE with restriction enzymes Kpn I and Hind III was inserted into pGL3(R2.2)/Zeocin-Basic Vector similarly digested with Kpn I and Hind III to give reporter plasmid pGL3(R2.2)/Zeocin-CRE-luc.
(3) Introduction of Human GPR119 Gene and Reporter Gene into CHO(dhfr-) Cells and Acquirement of Expressing Cell
CHO(dhfr-) cells in MEMα (minimum essential medium alpha) (Nikken bio medical laboratory) medium containing 10% fetal bovine serum, 100 U/mL penicillin and 100 μg/mL streptomycin (Invitrogen) were detached by a treatment with trypsin-EDTA (ethylenediaminetetraacetic acid) (Invitrogen), the cells were washed with PBS (Phosphate-buffered saline), centrifuged (1000 rpm, 5 min) and suspended in PBS at a cell density of 1×10^7 cells/mL. Then, DNA was introduced into the cell by a gene pulser (Bio-Rad) under the following conditions. That is, 1×10^7 cells, plasmid pGL3(R2.2)/Zeocin-CRE-luc (15 μg), which was obtained in (2) and linearized with BssH II, and pAKKO-111H (5 μg) were added in a 0.4 cm gap cuvette, and the mixture was electroporated at voltage […], capacitance 950 μF. The cells were placed in the above-mentioned medium, cultured for 24 hr, and the cells were detached and centrifuged. The cells were diluted to 250 cells/well, plated in a 96 well plate (Corning) and cultivated in a CO2 incubator at 37° C. to give a transformant. Then, forskolin was added to the obtained transformant and a strain (CRE-luc/CHO(dhfr-) cell) that induces luciferase expression was selected. […]

With `CCc1cnc(N2CCC(Oc3cc(N4CCc5cc(S(C)(=O)=O)ccc54)ncn3)CC2)nc1` [Example 33, 1-(6-{[1-(5-ethylpyrimidin-2-yl)piperidin-4-yl]oxy}pyrimidin-4-yl)-5-(methylsulfonyl)-2,3-dihydro-1H-indole] the “blood glucose lowering rate (%)” value (male Wistar fatty rats) was 23.4** %, the “plasma glucose AUC0-120 min” value (male Wistar fatty rats) was 25073.3 mg·min/dL and the “GPR119 agonist activity (%) at 1 μM concentration” value (“GPR119 agonist activity (%)” for short) (human GPR119) was 74%.
In the case of `CC(C)SC(=O)N1CCC(Oc2cc(N3CCc4cc(S(C)(=O)=O)ccc43)ncn2)CC1` [Example 35, S-(1-methylethyl)4-({6-[5-(methylsulfonyl)-2,3-dihydro-1H-indol-1-yl]pyrimidin-4-yl}oxy)piperidine-1-carbothioate], the “blood glucose lowering rate (%)” value (male Wistar fatty rats) is reported as 23.0** %, the “plasma glucose AUC0-120 min” value (male Wistar fatty rats) is reported as 25212.5 mg·min/dL and the “GPR119 agonist activity (%)” value (human GPR119) is reported as 82%.
In the case of `CC(C)c1noc(N2CCC(Oc3cc(N4CCc5cc(S(C)(=O)=O)ccc54)ncn3)CC2)n1` [Example 38, 1-[6-({1-[3-(1-methylethyl)-1,2,4-oxadiazol-5-yl]piperidin-4-yl}oxy)pyrimidin-4-yl]-5-(methylsulfonyl)-2,3-dihydro-1H-indole], the “blood glucose lowering rate (%)” value (male Wistar fatty rats) is reported as 24.8** %, the “plasma glucose AUC0-120 min” value (male Wistar fatty rats) is reported as 24612.5 mg·min/dL and the “GPR119 agonist activity (%)” value (human GPR119) is reported as 79%.
With `CC(C)OC(=O)N1CCC(Oc2cc(N3CCc4cc(NC(=O)[C@H]5CCCO5)ccc43)ncn2)CC1` [Example 51, isopropyl 4-{[6-(5-{[(2R)-tetrahydrofuran-2-ylcarbonyl]amino}-2,3-dihydro-1H-indol-1-yl)pyrimidin-4-yl]oxy}piperidine-1-carboxylate] the “GPR119 agonist activity (%)” value (human GPR119) was 83%.
In the case of `CC(C)SC(=O)N1CCC(Oc2cc(N3CCc4cc(NC(=O)CO)ccc43)ncn2)CC1` [Example 54, S-(1-methylethyl) 4-[(6-{5-[(hydroxyacetyl)amino]-2,3-dihydro-1H-indol-1-yl}pyrimidin-4-yl)oxy]piperidine-1-carbothioate], the “GPR119 agonist activity (%)” value (human GPR119) is reported as 82%.
For `CC(C)OC(=O)N1CCC(Oc2cc(N3CCc4cc(NC(=O)CO)ccc43)ncn2)CC1` [Example 55, isopropyl 4-[(6-{5-[(hydroxyacetyl)amino]-2,3-dihydro-1H-indol-1-yl}pyrimidin-4-yl)oxy]piperidine-1-carboxylate], the “GPR119 agonist activity (%)” value (human GPR119) was 84%.
With `CCc1cnc(N2CCC(Oc3cc(N4CCc5cc(NC(=O)CO)ccc54)ncn3)CC2)nc1` [Example 56, N-[1-(6-{[1-(5-ethylpyrimidin-2-yl)piperidin-4-yl]oxy}pyrimidin-4-yl)-2,3-dihydro-1H-indol-5-yl]-2-hydroxyacetamide] the “GPR119 agonist activity (%)” value (human GPR119) was 75%.
With `COCC(=O)Nc1ccc2c(c1)CCN2c1cc(OC2CCN(C(=O)OC(C)C)CC2)ncn1` [Example 59, isopropyl 4-[(6-{5-[(methoxyacetyl)amino]-2,3-dihydro-1H-indol-1-yl}pyrimidin-4-yl)oxy]piperidine-1-carboxylate] the “GPR119 agonist activity (%)” value (human GPR119) was 77%.
In the case of `COCC(=O)Nc1ccc2c(c1)CCN2c1cc(OC2CCN(C(=O)SC(C)C)CC2)ncn1` [Example 60, S-(1-methylethyl) 4-[(6-{5-[(methoxyacetyl)amino]-2,3-dihydro-1H-indol-1-yl}pyrimidin-4-yl)oxy]piperidine-1-carbothioate], the “GPR119 agonist activity (%)” value (human GPR119) is reported as 81%.
In the case of `CSC(=O)N1CCC(Oc2cc(N3CCc4cc(S(C)(=O)=O)ccc43)ncn2)CC1` [Example 61, S-methyl 4-({6-[5-(methylsulfonyl)-2,3-dihydro-1H-indol-1-yl]pyrimidin-4-yl}oxy)piperidine-1-carbothioate], the “GPR119 agonist activity (%)” value (human GPR119) is reported as 85%.
With `CC(C)SC(=O)N1CCC(Oc2cc(N3CCc4cc(S(C)(=O)=O)cc(F)c43)ncn2)CC1` [Example 62, S-(1-methylethyl) 4-({6-[7-fluoro-5-(methylsulfonyl)-2,3-dihydro-1H-indol-1-yl]pyrimidin-4-yl}oxy)piperidine-1-carbothioate] the “GPR119 agonist activity (%)” value (human GPR119) was 83%.
With `CC(C)c1noc(N2CCC(Oc3cc(N4CCc5cc(S(C)(=O)=O)cc(F)c54)ncn3)CC2)n1` [Example 64, 7-fluoro-1-[6-({1-[3-(1-methylethyl)-1,2,4-oxadiazol-5-yl]piperidin-4-yl}oxy)pyrimidin-4-yl]-5-(methylsulfonyl)-2,3-dihydro-1H-indole] the “GPR119 agonist activity (%)” value (human GPR119) was 77%.
In the case of `CCc1cnc(N2CCC(N(c3cc(N4CCc5cc(S(C)(=O)=O)ccc54)ncn3)C(F)(F)F)CC2)nc1` [Example 69, N-[1-(5-ethylpyrimidin-2-yl)piperidin-4-yl]-6-[5-(methylsulfonyl)-2,3-dihydro-1H-indol-1-yl]-N-(trifluoromethyl)pyrimidin-4-amine], the “GPR119 agonist activity (%)” value (human GPR119) is reported as 98%.
In the case of `CC(C)OC(=O)N1CCC(N(c2cc(N3CCc4cc(S(C)(=O)=O)ccc43)ncn2)C(F)(F)F)CC1` [Example 70, 1-methylethyl 4-[{6-[5-(methylsulfonyl)-2,3-dihydro-1H-indol-1-yl]pyrimidin-4-yl}(trifluoromethyl)amino]piperidine-1-carboxylate], the “GPR119 agonist activity (%)” value (human GPR119) is reported as 83%.
For `CC(C)SC(=O)N1CCC(N(c2cc(N3CCc4cc(S(C)(=O)=O)ccc43)ncn2)C(F)(F)F)CC1` [Example 71, S-(1-methylethyl) 4-[{6-[5-(methylsulfonyl)-2,3-dihydro-1H-indol-1-yl]pyrimidin-4-yl}(trifluoromethyl)amino]piperidine-1-carbothioate], the “GPR119 agonist activity (%)” value (human GPR119) was 82%.
For `COc1cnc(N2CCC(N(c3cc(N4CCc5cc(S(C)(=O)=O)ccc54)ncn3)C(F)(F)F)CC2)nc1` [Example 72, N-[1-(5-methoxypyrimidin-2-yl)piperidin-4-yl]-6-[5-(methylsulfonyl)-2,3-dihydro-1H-indol-1-yl]-N-(trifluoromethyl)pyrimidin-4-amine], the “GPR119 agonist activity (%)” value (human GPR119) was 77%.
In the case of `Cc1cnc(N2CCC(N(c3cc(N4CCc5cc(S(C)(=O)=O)ccc54)ncn3)C(F)(F)F)CC2)nc1` [Example 73, N-[1-(5-methylpyrimidin-2-yl)piperidin-4-yl]-6-[5-(methylsulfonyl)-2,3-dihydro-1H-indol-1-yl]-N-(trifluoromethyl)pyrimidin-4-amine], the “GPR119 agonist activity (%)” value (human GPR119) is reported as 88%.
